{"source": "patent EP4389751A1", "about": "“HETEROCYCLIC COMPOUNDS AND USES THEREOF” (Kumquat Biosciences Inc., priority 2021, dated 2024)", "key": {"K-Ras G12S": {"biological_target": "T1, K-Ras G12S (Homo sapiens, UniProt P01116, G12S)", "T1 construct": "made in house; host or cells: E. coli (e.g., BL21 (DE3))", "assay": "HTRF assay of the K-Ras / SOS1 interaction", "type": "biochemical", "settings": "IC50 (against K-Ras G12D) to IC50 (against K-Ras G12S)", "procedure,_shortened": "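Compounds (duplicates, 10 µM to 0.01 µM) were incubated ≥~10 min with Eu-labelled GST-K-Ras G12S and XL665-labelled His-hSOS1 in HEPES pH 7.4 buffer containing NaCl, DTT, BSA and Igepal. Disruption measured as HTRF emission ratio 665/620 nm, fitted to IC50.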"}, "GP2D cells": {"test_system": "GP2D cells", "assay": "Cell proliferation assay (CellTiter-Glo), K-Ras G12D cells", "type": "cell-based", "settings": "read-out: Inhibition of GP2D Cells (IC50)", "protocol": "ASPC-1 (ATCC CRL-1682), Panc-10.05 (ATCC CRL-2547), A427, and GP2D (Sigma 95090714) cell lines comprise a G12D mutation and can be used to assess Ras cellular signaling in vitro, e.g., in response to the compounds herein. […] ASPC-1 culture medium is prepared with RPMI-1640 and 10% heat-inactivated FBS. Panc-10.05 culture medium is prepared with RPMI-1640, 10 Units/ml human recombinant insulin, and 10% FBS. A427 cell culture is prepared with RPMI-1640 and 10% heat-inactivated FBS. GP2D culture medium is prepared with DMEM with 2mM glutamine and 10% heat-inactivated FBS. A Cell Titer-Glo (CTG) luminescent based assay (Promega) is used to assess growth of the cells, as a measurement of the ability of the compounds herein to inhibit Ras signaling in the cells. The cells (e.g., 800 per well) are seeded in their respective culture medium in standard tissue culture-treated 384-well format plates (Falcon #08-772-116) or ultra-low attachment surface 384-well format plates (S-Bio # MS-9384UZ ). The day after plating, cells are treated with a dilution series (e.g., a 9 point 3-fold dilution series) of the compounds herein (e.g., approximately 40 µl final volume per well). Cell viability can be monitored (e.g., approximately 5 days later) according to the manufacturer's recommended instructions, where the CellTiter-Glo reagent is added (e.g., approximately 10 µl), vigorously mixed, covered, and placed on a plate shaker (e.g., approximately for 20 min) to ensure sufficient cell lysis prior to assessment of luminescent signal. The IC50 values are determined using the four parameter fit. The resulting IC50 value is a measurement of the ability of the compounds herein to reduce cell growth of Ras-driven cells (e.g., tumor cell lines) in vitro and/or in vivo."}}, "note": "Read-outs that look alike come from different tables or passages of the source.", "data": [{"compound": "Nc1nc2c(-c3c(Cl)cc4c(N5C6CCC5CN(C(=O)n5cncn5)C6)nc(OC[C@@]56CCCN5C[C@H](F)C6)nc4c3F)ccc(F)c2s1", "note": "[Compound A239, (8-(7-(2-amino-7-fluorobenzo[d]thiazol-4-yl)-6-chloro-8-fluoro-2-(((2R,7aS)-2-fluorotetrahydro-1H-pyrrolizin-7a(5H)-yl)methoxy)quinazolm-4-yl)-3,8-diazabicyclo[3.2.1]octan-3-yl)(1H-1,2,4-triazol-1-yl)methanone]", "values": [{"measurement": "Ratio of IC50 KRAS G12D vs. IC50 KRAS G12S", "setting": "K-Ras G12S", "result": "A (A: indicates that the ratio of IC50 against KrasG12D vs. IC50 against KrasG12S is 1-fold or greater)"}, {"measurement": "IC50", "setting": "GP2D cells; GP2D cells (K-Ras G12D)", "result": "≤ 1000", "unit": "nM"}]}, {"compound": "Nc1nc2c(-c3c(Cl)cc4c(NCCN5CCN(C(=O)n6cncn6)CC5)nc(OC[C@@]56CCCN5C[C@H](F)C6)nc4c3F)ccc(F)c2s1", "note": "[Compound A156, (4-(2-((7-(2-amino-7-fluorobenzo[d]thiazol-4-yl)-6-chloro-8-fluoro-2-(((2R,7aS)-2-fluorotetrahydro-1H-pyrrolizin-7a(5H)-yl)methoxy)quinazolin-4-yl)amino)ethyl)piperazin-1-yl)(1H-1,2,4-triazol-1-yl)methanone]", "values": [{"measurement": "Ratio of IC50 KRAS G12D vs. IC50 KRAS G12S", "setting": "K-Ras G12S", "result": "A (A: indicates that the ratio of IC50 against KrasG12D vs. IC50 against KrasG12S is 1-fold or greater)"}, {"measurement": "IC50", "setting": "GP2D cells; GP2D cells (K-Ras G12D)", "result": "1000 to 10000", "unit": "nM"}]}, {"compound": "Nc1nc2c(-c3c(Cl)cc4c(N5CC6CCC(C5)N6C(=O)n5cc(F)cn5)nc(OC[C@@]56CCCN5C[C@H](F)C6)nc4c3F)ccc(F)c2s1", "note": "[Compound A101, (3-(7-(2-amino-7-fluorobenzo[d]thiazol-4-yl)-6-chloro-8-fluoro-2-(((2R,7aS)-2-fluorotetrahydro-1H-pyrrolizin-7a(5H)-yl)methoxy)quinazolin-4-yl)-3,8-diazabicyclo[3.2.1]octan-8-yl)(4-fluoro-1H-pyrazol-1-yl)methanone]", "values": [{"measurement": "Ratio of IC50 KRAS G12D vs. IC50 KRAS G12S", "setting": "K-Ras G12S", "result": "A (A: indicates that the ratio of IC50 against KrasG12D vs. IC50 against KrasG12S is 1-fold or greater)"}, {"measurement": "IC50", "setting": "GP2D cells; GP2d", "result": "1000 to 10000", "unit": "nM"}]}, {"compound": "Nc1nc2c(-c3c(Cl)cc4c(N5CC6(CN(C(=O)n7cncn7)C6)C5)nc(OC[C@@]56CCCN5C[C@H](F)C6)nc4c3F)ccc(F)c2s1", "note": "[Compound A264, (6-(7-(2-amino-7-fluorobenzo[d]thiazol-4-yl)-6-chloro-8-fluoro-2-(((2R,7aS)-2-fluorotetrahydro-1H-pyrrolizin-7a(5H)-yl)methoxy)quinazolm-4-yl)-2,6-diazaspiro[3.3]heptan-2-yl)(1H-1,2,4-triazol-1-yl)methanone]", "values": [{"measurement": "Ratio of IC50 KRAS G12D vs. IC50 KRAS G12S", "setting": "K-Ras G12S", "result": "A (A: indicates that the ratio of IC50 against KrasG12D vs. IC50 against KrasG12S is 1-fold or greater)"}, {"measurement": "IC50", "setting": "GP2D cells; GP2D cells (K-Ras G12D)", "result": "1000 to 10000", "unit": "nM"}]}, {"compound": "Nc1nc2c(-c3c(Cl)cc4c(N5CC6CCC(C5)N6C(=O)Nc5cncnc5)nc(OC[C@@]56CCCN5C[C@H](F)C6)nc4c3F)ccc(F)c2s1", "note": "[Compound A124, 3-(7-(2-amino-7-fluorobenzo[d]thiazol-4-yl)-6-chloro-8-fluoro-2-(((2R,7aS)-2-fluorotetrahydro-1H-pyrrolizin-7a(5H)-yl)methoxy)quinazolin-4-yl)-N-(pyrimidin-5-yl)-3,8-diazabicyclo[3.2. 1]octane-8-carboxamide]", "values": [{"measurement": "Ratio of IC50 KRAS G12D vs. IC50 KRAS G12S", "setting": "K-Ras G12S", "result": "A (A: indicates that the ratio of IC50 against KrasG12D vs. IC50 against KrasG12S is 1-fold or greater)"}, {"measurement": "IC50", "setting": "GP2D cells; GP2d", "result": "≤ 1000", "unit": "nM"}]}, {"compound": "Nc1nc2c(-c3c(Cl)cc4c(N5CCC6CN(C(=O)n7cncn7)CC6C5)nc(OC[C@@]56CCCN5C[C@H](F)C6)nc4c3F)ccc(F)c2s1", "note": "(stereo partly drawn) [Compound A294, (5-(7-(2-amino-7-fluorobenzo[d]thiazol-4-yl)-6-chloro-8-fluoro-2-(((2R,7aS)-2-fluorotetrahydro-1H-pyrrolizin-7a(5H)-yl)methoxy)quinazolin-4-yl)octahydro-2H-pyrrolo[3,4-c]pyridin-2-yl)(1H-1,2,4-triazol-1-yl)methanone]", "values": [{"measurement": "Ratio of IC50 KRAS G12D vs. IC50 KRAS G12S", "setting": "K-Ras G12S", "result": "A (A: indicates that the ratio of IC50 against KrasG12D vs. IC50 against KrasG12S is 1-fold or greater)"}, {"measurement": "IC50", "setting": "GP2D cells; GP2D cells (K-Ras G12D)", "result": "1000 to 10000", "unit": "nM"}]}, {"compound": "Nc1nc2c(-c3c(Cl)cc4c(N5CC6CCC(C5)N6C(=O)n5cnc(F)c5)nc(OC[C@@]56CCCN5C[C@H](F)C6)nc4c3F)ccc(F)c2s1", "note": "[Compound A135, (3-(7-(2-amino-7-fluorobenzo[d]thiazol-4-yl)-6-chloro-8-fluoro-2-(((2R,7aS)-2-fluorotetrahydro-1H-pyrrolizin-7a(5H)-yl)methoxy)quinazolin-4-yl)-3,8-diazabicyclo[3.2.1]octan-8-yl)(4-fluoro-1H-imidazol-1-yl)methanone]", "values": [{"measurement": "Ratio of IC50 KRAS G12D vs. IC50 KRAS G12S", "setting": "K-Ras G12S", "result": "A (A: indicates that the ratio of IC50 against KrasG12D vs. IC50 against KrasG12S is 1-fold or greater)"}, {"measurement": "IC50", "setting": "GP2D cells; GP2d", "result": "≤ 1000", "unit": "nM"}]}, {"compound": "N#Cc1c(N)sc2c(F)ccc(-c3ncc4c(N5CC6CCC(C5)N6C(=O)n5cncn5)nc(OC[C@@]56CCCN5C[C@H](F)C6)nc4c3F)c12", "note": "[Compound A206, 4-(4-(8-(1H-1,2,4-triazole-1-carbonyl)-3,8-diazabicyclo[3.2.1]octan-3-yl)-8-fluoro-2-(((2R,7aS)-2-fluorotetrahydro-1H-pyrrolizin-7a(5H)-yl)methoxy)pyrido[4,3-d]pyrimidin-7-yl)-2-amino-7-fluorobenzo[b]thiophene-3-carbonitrile]", "values": [{"measurement": "Ratio of IC50 KRAS G12D vs. IC50 KRAS G12S", "setting": "K-Ras G12S", "result": "A (A: indicates that the ratio of IC50 against KrasG12D vs. IC50 against KrasG12S is 1-fold or greater)"}, {"measurement": "IC50", "setting": "GP2D cells; GP2D cells (K-Ras G12D)", "result": "≤ 1000", "unit": "nM"}]}, {"compound": "Nc1nc2c(-c3c(Cl)cc4c(N5CC6CCC(C5)N6C(=O)Nc5ncccn5)nc(OC[C@@]56CCCN5C[C@H](F)C6)nc4c3F)ccc(F)c2s1", "note": "[Compound A274, 3-(7-(2-amino-7-fluorobenzo[d]thiazol-4-yl)-6-chloro-8-fluoro-2-(((2R,7aS)-2-fluorotetrahydro-1H-pyrrolizin-7a(5H)-yl)methoxy)quinazolin-4-yl)-N-(pyrimidin-2-yl)-3,8-diazabicyclo[3.2. 1]octane-8-carboxamide]", "values": [{"measurement": "Ratio of IC50 KRAS G12D vs. IC50 KRAS G12S", "setting": "K-Ras G12S", "result": "A (A: indicates that the ratio of IC50 against KrasG12D vs. IC50 against KrasG12S is 1-fold or greater)"}, {"measurement": "IC50", "setting": "GP2D cells; GP2D cells (K-Ras G12D)", "result": "≤ 1000", "unit": "nM"}]}, {"compound": "2-amino-4-(6-chloro-8-fluoro-2-(((2R,7aS)-2-fluorotetrahydro-1H-pyrrolizin-7 a(5H)-yl)methoxy)-4-(8-(4-methyl-1H-1,2,3-triazole-1-carbonyl)-3,8-diazabicyclo[3.2.1]octan-3-yl)quinazolin-7-yl)-7-fluorobenzo[b]thiophene-3-carbonitrile [Compound A189]", "values": [{"measurement": "Ratio of IC50 KRAS G12D vs. IC50 KRAS G12S", "setting": "K-Ras G12S", "result": "A (A: indicates that the ratio of IC50 against KrasG12D vs. IC50 against KrasG12S is 1-fold or greater)"}, {"measurement": "IC50", "setting": "GP2D cells; GP2D cells (K-Ras G12D)", "result": "≤ 1000", "unit": "nM"}]}, {"compound": "N#Cc1cnn(C(=O)N2CC3COCC(C2)N3c2nc(OC[C@@]34CCCN3C[C@H](F)C4)nc3c(F)c(-c4ccc(F)c5sc(N)c(C#N)c45)c(Cl)cc23)c1", "note": "[Compound A249, 1-(9-(7-(2-amino-3-cyano-7-fluorobenzo[b]thiophen-4-yl)-6-chloro-8-fluoro-2-(((2R,7aS)-2-fluorotetrahydro-1H-pyrrolizin-7a(5H)-yl)methoxy)quinazolin-4-yl)-3-oxa-7,9-diazabicyclo[3.3.1]nonane-7-carbonyl)-1H-pyrazole-4-carbonitrile]", "values": [{"measurement": "Ratio of IC50 KRAS G12D vs. IC50 KRAS G12S", "setting": "K-Ras G12S", "result": "A (A: indicates that the ratio of IC50 against KrasG12D vs. IC50 against KrasG12S is 1-fold or greater)"}, {"measurement": "IC50", "setting": "GP2D cells; GP2D cells (K-Ras G12D)", "result": "≤ 1000", "unit": "nM"}]}, {"compound": "Nc1nc2c(-c3c(Cl)cc4c(N[C@@H]5C[C@H]6CC[C@@H](C5)N6C(=O)n5cncn5)nc(OC[C@@]56CCCN5C[C@H](F)C6)nc4c3F)ccc(F)c2s1", "note": "[Compound A286, ((1R,3s,5S)-3-((7-(2-amino-7-fluorobenzo[d]thiazol-4-yl)-6-chloro-8-fluoro-2-(((2R,7aS)-2-fluorotetrahydro-1H-pyrrolizin-7a(5H)-yl)methoxy)quinazolin-4-yl)amino)-8-azabicyclo[3.2.1]octan-8-yl)(1H-1,2,4-triazol-1-yl)methanone]", "values": [{"measurement": "Ratio of IC50 KRAS G12D vs. IC50 KRAS G12S", "setting": "K-Ras G12S", "result": "A (A: indicates that the ratio of IC50 against KrasG12D vs. IC50 against KrasG12S is 1-fold or greater)"}, {"measurement": "IC50", "setting": "GP2D cells; GP2d", "result": "1000 to 10000", "unit": "nM"}]}, {"compound": "N#Cc1cnn(C(=O)N2CC3CCC(C2)N3c2nc(OC[C@@]34CCCN3C[C@H](F)C4)nc3c(F)c(-c4ccc(F)c5sc(N)nc45)c(Cl)cc23)c1", "note": "[Compound A112, 1-(8-(7-(2-amino-7-fluorobenzo[d]thiazol-4-yl)-6-chloro-8-fluoro-2-(((2R,7aS)-2-fluorotetrahydro-1H-pyrrolizin-7a(5H)-yl)methoxy)quinazolin-4-yl)-3,8-diazabicyclo[3.2. 1]octane-3-carbonyl)-1H-pyrazole-4-carbonitrile]", "values": [{"measurement": "Ratio of IC50 KRAS G12D vs. IC50 KRAS G12S", "setting": "K-Ras G12S", "result": "A (A: indicates that the ratio of IC50 against KrasG12D vs. IC50 against KrasG12S is 1-fold or greater)"}, {"measurement": "IC50", "setting": "GP2D cells; GP2d", "result": "≤ 1000", "unit": "nM"}]}]}
